The values below are quoted from earlier work in patent US20230149445A1, “OXIDATIVE STRESS INHIBITOR AND ANTIOXIDANT AGENT” (BOSQUET Silicon Corp., priority 2020, published 2023).

The conditions of this data set: water at 25° C.

On to `[HH]` [hydrogen (H2), hydrogen], for which the “saturated solubility in water” value is 1.6 ppm.
